Data on 3 molecules can be found in ChEMBL document CHEMBL2390830 (Eur J Med Chem, 2013).

Series [1] deals with T1, 5-hydroxytryptamine receptor 2B (Homo sapiens, UniProt P41595). The series can be described thus: Binding affinity to human 5-HT2B receptor by radioligand displacement assay. In general terms: In a radioligand displacement assay an active substance lowers the binding of a labelled ligand.
The test system of series [2] is Mus musculus. The series can be described thus: Toxicity in CD1 mouse assessed as effect on autonomic system up to 80 mg/kg, po measured for 24 hrs by Irwin test. The series is classed as organism-based. Details: dose 80 mg/kg, route oral. As to conditions: in vivo.
Series [3] deals with Mus musculus. Kind of series: Toxicity in CD1 mouse assessed as effect on neuromotor tonus up to 80 mg/kg, po measured for 24 hrs by Irwin test. The series is classed as organism-based. Further details: dose 80 mg/kg, route oral. As to conditions: in vivo.
The subject of series [4] is Mus musculus. Kind of series: Toxicity in CD1 mouse assessed as effect on neurovegetative reflexes up to 80 mg/kg, po measured for 24 hrs by Irwin test. As to conditions: in vivo. The series is classed as organism-based. Details: dose 80 mg/kg, route oral.
The test system of series [5] is Mus musculus. Kind of series: Toxicity in CD1 mouse assessed as effect on central reactivity up to 80 mg/kg, po measured for 24 hrs by Irwin test. The series is classed as organism-based. Further details: dose 80 mg/kg, route oral. As to conditions: in vivo.
Series [6] deals with Mus musculus. The series can be described thus: Toxicity in CD1 mouse assessed as effect on central activity up to 80 mg/kg, po measured for 24 hrs by Irwin test. The series is classed as organism-based. Further details: dose 80 mg/kg, route oral. As to conditions: in vivo.
The nature of series [7]: Tmax in CD1 mouse at 10 mg/kg, po. It is filed as ADME, organism-based. Further details: dose 10 mg/kg, route oral. As to conditions: in vivo.
The nature of series [8]: Oral bioavailability in CD1 mouse at 10 mg/kg. To be noted: in vivo. It is filed as ADME, organism-based.
Series [9] is described as follows: Cmax in CD1 mouse at 10 mg/kg, po. Further details: dose 10 mg/kg, route oral. It is filed as ADME, organism-based. To be noted: in vivo.
Series [10] can be described thus: AUCinfinity in CD1 mouse at 2 mg/kg, iv. The series is classed as ADME, organism-based. Further details: time infinity, dose 2 mg/kg, route intravenous. As to conditions: plasma.
Series [11] is described as follows: AUCinfinity in CD1 mouse at 10 mg/kg, po. To be noted: plasma. It is filed as ADME, organism-based. Details: time infinity, dose 10 mg/kg, route oral.
Series [12] can be described thus: AUC (0 to t) in CD1 mouse at 2 mg/kg, iv. It is filed as ADME, organism-based. Details: dose 2 mg/kg, route intravenous. As to conditions: plasma.
A short description of series [13]: AUC (0 to t) in CD1 mouse at 10 mg/kg, po. It is filed as ADME, organism-based. Details: dose 10 mg/kg, route oral. As to conditions: plasma.
Series [14] in a line: Half life in CD1 mouse at 2 mg/kg, iv. To be noted: in vivo. The series is classed as ADME, organism-based. Details: dose 2 mg/kg, route intravenous.
The nature of series [15]: Half life in CD1 mouse at 10 mg/kg, po. It is filed as ADME, organism-based. To be noted: in vivo. Details: dose 10 mg/kg, route oral.
The nature of series [16]: Apparent volume of distribution in CD1 mouse at 2 mg/kg, iv. It is filed as ADME, organism-based. Further details: dose 2 mg/kg, route intravenous. To be noted: in vivo, read-out: Vz.
Series [17] can be described thus: Clearance in CD1 mouse at 2 mg/kg, iv. Further details: dose 2 mg/kg, route intravenous. To be noted: in vivo. The series is classed as ADME, organism-based.
Series [18] addresses T2, 5-hydroxytryptamine receptor 1A (Homo sapiens) (UniProt P08908).
T2 sequence (whole entry): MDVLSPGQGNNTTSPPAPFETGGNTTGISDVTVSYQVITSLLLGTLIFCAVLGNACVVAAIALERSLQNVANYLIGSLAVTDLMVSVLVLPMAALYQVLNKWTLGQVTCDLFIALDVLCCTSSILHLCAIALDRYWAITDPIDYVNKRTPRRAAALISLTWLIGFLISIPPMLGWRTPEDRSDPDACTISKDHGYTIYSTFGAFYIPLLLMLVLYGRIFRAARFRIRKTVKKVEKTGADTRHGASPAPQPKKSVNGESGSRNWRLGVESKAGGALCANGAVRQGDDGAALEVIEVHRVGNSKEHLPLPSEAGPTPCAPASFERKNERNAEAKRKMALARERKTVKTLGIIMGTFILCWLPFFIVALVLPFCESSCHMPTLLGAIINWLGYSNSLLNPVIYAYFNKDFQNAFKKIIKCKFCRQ
Kind of series: Antagonist activity at human 5-HT1A receptor transfected in CHO cells assessed as reversal of 8-OH-DPAT-induced cAMP reduction. The series is classed as functional, cell-based.

Series [19] concerns the target T2, 5-hydroxytryptamine receptor 1A (Homo sapiens). Kind of series: Agonist activity at human 5-HT1A receptor transfected in CHO cells assessed as inhibition of forskolin-induced cAMP accumulation at 100 nM relative to control. The series is classed as functional, cell-based.
Series [20] has as its target T3, D(4) dopamine receptor (Homo sapiens, UniProt P21917).
T3 sequence (P21917 whole entry): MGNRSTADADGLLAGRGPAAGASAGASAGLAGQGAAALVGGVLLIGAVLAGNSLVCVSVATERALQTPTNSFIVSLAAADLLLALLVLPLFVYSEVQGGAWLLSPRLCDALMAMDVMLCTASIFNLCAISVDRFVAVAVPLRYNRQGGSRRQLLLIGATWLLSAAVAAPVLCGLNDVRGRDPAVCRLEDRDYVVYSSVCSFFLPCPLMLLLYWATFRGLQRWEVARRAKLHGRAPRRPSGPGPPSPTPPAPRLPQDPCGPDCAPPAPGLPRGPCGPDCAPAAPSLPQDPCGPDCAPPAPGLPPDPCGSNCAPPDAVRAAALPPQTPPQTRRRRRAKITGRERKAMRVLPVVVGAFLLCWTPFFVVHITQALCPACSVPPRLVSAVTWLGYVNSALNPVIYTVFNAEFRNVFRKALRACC
The series can be described thus: Inhibition of dopamine D4 receptor (unknown origin).

Series [21] concerns the target T4, D(4) dopamine receptor (Homo sapiens) (UniProt P21917).
T4 sequence (whole entry): T3 sequence (P21917 whole entry)
The series can be described thus: Inhibition of dopamine D4 receptor (unknown origin) at 10 nM relative to control.

Series [22] deals with T5, D(3) dopamine receptor (Homo sapiens, UniProt P35462). The series can be described thus: Inhibition of human dopamine D3 receptor.
The target of series [23] is T4, D(4) dopamine receptor (Homo sapiens). The series can be described thus: Inhibition of dopamine D4 receptor (unknown origin) at 100 nM relative to control.
The target in series [24] is T5, D(3) dopamine receptor. Kind of series: Inhibition of human dopamine D3 receptor at 10 nM relative to control.
In series [25] the target is T5, D(3) dopamine receptor. The series can be described thus: Inhibition of human dopamine D3 receptor at 100 nM relative to control.
Series [26] deals with T6, D(2) dopamine receptor (Homo sapiens, UniProt P14416). Kind of series: Inhibition of human recombinant dopamine D2S receptor expressed in HEK293 cells. It is filed as cell-based.
Series [27] has as its target T7, 5-hydroxytryptamine receptor 7 (Homo sapiens, UniProt P34969). The series can be described thus: Inhibition of human 5-HT7 receptor.
The target in series [28] is T7, 5-hydroxytryptamine receptor 7. The series can be described thus: Inhibition of human 5-HT7 receptor at 10 nM relative to control.
Series [29] has the same target. Kind of series: Inhibition of human 5-HT7 receptor at 100 nM relative to control.
Series [30] has as its target T1, 5-hydroxytryptamine receptor 2B. The series can be described thus: Inhibition of human 5-HT2B receptor.
For series [31] the target is unchanged. Kind of series: Inhibition of human 5-HT2B receptor at 10 nM relative to control.
The target is the same in series [32]. Kind of series: Inhibition of human 5-HT2B receptor at 100 nM relative to control.
Series [33] has as its target T8, 5-hydroxytryptamine receptor 1A (Rattus norvegicus, UniProt P19327).
T8 sequence (P19327 whole entry): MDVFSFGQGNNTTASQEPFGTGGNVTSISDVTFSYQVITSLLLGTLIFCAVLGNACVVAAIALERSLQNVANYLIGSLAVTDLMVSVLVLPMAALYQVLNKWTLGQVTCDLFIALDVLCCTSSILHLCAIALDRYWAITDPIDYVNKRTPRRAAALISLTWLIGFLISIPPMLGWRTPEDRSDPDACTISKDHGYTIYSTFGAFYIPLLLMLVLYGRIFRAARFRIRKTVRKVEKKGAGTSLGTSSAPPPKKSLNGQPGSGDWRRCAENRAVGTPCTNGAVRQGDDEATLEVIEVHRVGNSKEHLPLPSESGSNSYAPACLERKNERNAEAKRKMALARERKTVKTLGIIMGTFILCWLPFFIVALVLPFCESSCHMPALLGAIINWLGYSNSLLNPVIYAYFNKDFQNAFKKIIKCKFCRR
The series can be described thus: Displacement of [3H]8-OH-DPAT from 5-HT1A receptor in Wistar rat cerebral hippocampus membrane after 10 mins. As to conditions: read-out: Ki(app). The series is classed as tissue-based.

In series [34] the target is T6, D(2) dopamine receptor. To be noted: HEK293, 100 nM.
Series [35] has as its target T6, D(2) dopamine receptor. To be noted: HEK293, 10 nM.

Calls of active or inactive are those of the source.

T1 sequence (P41595 whole entry): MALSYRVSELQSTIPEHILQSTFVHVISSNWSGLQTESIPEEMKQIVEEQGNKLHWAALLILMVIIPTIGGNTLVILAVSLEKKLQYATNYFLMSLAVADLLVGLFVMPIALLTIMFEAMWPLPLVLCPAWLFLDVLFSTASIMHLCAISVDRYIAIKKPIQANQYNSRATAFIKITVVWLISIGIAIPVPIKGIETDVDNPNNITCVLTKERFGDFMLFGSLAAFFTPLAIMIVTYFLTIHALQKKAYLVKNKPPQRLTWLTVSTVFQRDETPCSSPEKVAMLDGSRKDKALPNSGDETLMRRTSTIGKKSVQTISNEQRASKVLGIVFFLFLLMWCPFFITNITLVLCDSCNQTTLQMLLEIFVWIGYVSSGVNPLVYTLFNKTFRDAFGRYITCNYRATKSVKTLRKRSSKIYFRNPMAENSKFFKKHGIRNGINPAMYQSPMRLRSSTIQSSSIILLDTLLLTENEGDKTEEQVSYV
T6 sequence (P14416 whole entry): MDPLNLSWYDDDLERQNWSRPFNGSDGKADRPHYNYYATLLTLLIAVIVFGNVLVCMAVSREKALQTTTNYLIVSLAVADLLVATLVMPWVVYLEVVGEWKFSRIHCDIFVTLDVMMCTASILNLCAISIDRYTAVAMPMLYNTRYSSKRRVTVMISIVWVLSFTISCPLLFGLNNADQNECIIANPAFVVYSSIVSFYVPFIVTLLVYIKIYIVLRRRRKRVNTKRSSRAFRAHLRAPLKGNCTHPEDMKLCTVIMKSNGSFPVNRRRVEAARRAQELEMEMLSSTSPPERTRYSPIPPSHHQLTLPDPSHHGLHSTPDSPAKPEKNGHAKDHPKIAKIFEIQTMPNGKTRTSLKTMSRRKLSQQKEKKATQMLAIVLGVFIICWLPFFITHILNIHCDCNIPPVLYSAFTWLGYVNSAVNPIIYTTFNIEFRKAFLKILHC
T5 sequence (P35462 whole entry): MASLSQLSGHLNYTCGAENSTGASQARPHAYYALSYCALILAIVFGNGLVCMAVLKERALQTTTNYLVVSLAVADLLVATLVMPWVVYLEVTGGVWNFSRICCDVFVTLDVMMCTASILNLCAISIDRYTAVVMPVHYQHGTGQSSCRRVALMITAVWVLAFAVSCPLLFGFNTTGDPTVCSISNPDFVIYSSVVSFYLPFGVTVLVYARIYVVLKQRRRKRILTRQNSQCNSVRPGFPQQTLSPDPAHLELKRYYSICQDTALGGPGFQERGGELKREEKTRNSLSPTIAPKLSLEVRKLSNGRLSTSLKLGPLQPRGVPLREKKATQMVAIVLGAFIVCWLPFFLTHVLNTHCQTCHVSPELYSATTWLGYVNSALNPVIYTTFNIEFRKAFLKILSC
T7 sequence (P34969 whole entry): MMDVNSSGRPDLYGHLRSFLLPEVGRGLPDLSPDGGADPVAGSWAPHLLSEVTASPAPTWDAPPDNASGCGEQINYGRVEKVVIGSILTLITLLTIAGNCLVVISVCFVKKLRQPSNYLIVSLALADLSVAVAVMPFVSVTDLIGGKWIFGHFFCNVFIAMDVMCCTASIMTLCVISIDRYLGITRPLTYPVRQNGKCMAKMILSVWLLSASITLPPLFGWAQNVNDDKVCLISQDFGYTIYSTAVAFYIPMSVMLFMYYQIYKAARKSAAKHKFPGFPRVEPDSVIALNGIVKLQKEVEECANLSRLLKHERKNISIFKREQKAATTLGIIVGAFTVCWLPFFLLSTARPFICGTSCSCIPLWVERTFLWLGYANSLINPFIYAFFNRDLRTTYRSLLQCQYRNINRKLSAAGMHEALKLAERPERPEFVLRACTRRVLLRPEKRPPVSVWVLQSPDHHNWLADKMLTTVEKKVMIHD

Molecule `COc1cc(CC(C)N)c(OC)cc1I` (racemic) displayed an IC50 in series [1] of 0.004 µM.

For the molecule `COc1ccccc1N1CCN(CCCCCN2Cc3c(Cl)nc4ccccc4c3C2=O)CC1`, the Activity result in [2], in series [3], in [4], in series [5] and in [6] was “Non-toxic” throughout. In addition, the Tmax in [7] was determined as 1 h. This molecule yielded a bioavailability in series [8] of 45%. This molecule also showed a Cmax in [9] of 35 ng/mL. Further, the AUC(0-inf) in series [10] was 76 ng·h/mL; in [11] it was 239 ng·h/mL. Further, the values for the AUC(0-t) in series [12] and in series [13] were 70 ng·h/mL and 157 ng·h/mL, respectively. Moreover, the half-life in [14] was 1.5 h; in series [15] it was 4.5 h. Besides, the Vd in series [16] turned out to be 58.7 L/kg. This molecule had a clearance in series [17] of 440 mL/min/kg. Moreover, the result in series [18] was inactive. Moreover, the inhibition was found to be 60% in series [19]; 10% in series [21]; 28% in [23]; 38% in [24]; 74% in [25]; 24% in [28]. For the same molecule, the inhibition in series [29] was determined as 42%; in series [31] it was 18%; in series [32], 65%; in series [34], 26%. Also, the half-inhibitory concentration (IC50) in series [20] was more than 0.1 µM; in [22], 0.031 µM; in series [26], more than 0.1 µM; in series [27] it was more than 0.1 µM; in series [30], 0.063 µM. Also, the Ki in [33] stood at 0.0017 µM.

Turning to `COc1ccccc1N1CCN(CCCCCN2Cc3ccc4ccccc4c3C2=O)CC1`, the Activity entry in series [2], in series [3], in series [4], in [5] and in series [6] was “Non-toxic” in each case. Also, the Tmax in series [7] was determined as 0.3 h. In [8], this molecule showed a bioavailability of 20%. Further, the peak concentration (Cmax) in series [9] was 56 ng/mL. The figures for the AUC(0-inf) in [10] and in series [11] were 210 ng·h/mL and 325 ng·h/mL, respectively. Also, the AUC(0-t) was determined as 207 ng·h/mL in [12] and 212 ng·h/mL in series [13]. Also, the half-life in series [14] was 1.3 h; in series [15] it was 4.7 h. In addition, the Vd in series [16] worked out at 17.6 L/kg. This molecule also had a clearance in series [17] of 159 mL/min/kg. Moreover, the result in series [18] was inactive. Moreover, the inhibition in series [19] came to 63%; in [21], 13%; in series [23], 60%; in [24], 39%; in series [25], 86%; in series [28] it was 18%. The inhibition was 65% in [29]; 28% in series [31]; 70% in series [32]; 74% in series [35]; 90% in [34]. The IC50 in series [20] came out at 0.065 µM; in [22], 0.024 µM; in series [26] it was 0.0035 µM; in [27], 0.062 µM; in series [30] it was 0.043 µM. Moreover, the Ki in series [33] was determined as 0.0016 µM.

A word on the IC50: it is the concentration that inhibits the measured activity by half. The term Tmax denotes the time at which the peak concentration occurs. Broadly, the bioavailability is the share of a dose that reaches the circulation, judged against a reference dose that is usually intravenous. Lower therefore signals poor availability. Broadly, the Cmax is the highest concentration seen after dosing. By AUC(0-inf) is commonly meant total exposure, with the tail of the curve extrapolated. Higher therefore signals more exposure. As usually defined, the AUC(0-t) is exposure summed from dosing to a finite time, without extrapolation to infinity. A lower AUC(0-t) goes with less exposure. In general, half-life refers to the time needed for the level to fall by half in the phase considered. The term clearance denotes the volume of plasma or blood freed of the substance per unit of time. Higher therefore signals a high capacity for elimination. The term inhibition denotes the drop in the measured response relative to a control, in per cent.
